# In patent US20240342242A1, “COMPOSITIONS AND METHODS FOR TREATING MASTITIS” (Zoetis Services LLC, priority 2021, published 2024):
# Where “and” joins values, the source holds several entries; their conditions need not be identical. Equal entries are not always repeated. Entries after “also recorded” stand apart in the source; their conditions may differ.
# Columns and labels:
# [1] = test system: primary bovine mammary epithelial cells (pMEC); experiment: Cytokine production in primary bovine mammary epithelial cells, unstimulated or LPS/MPLA (TLR 4 agonist) stimulated; format: cell-based
# Text: Chicken CATH2 is a host defense peptide that is naturally expressed in chicken heterophils and several tissues. […] LPS and MPLA serve as potent Toll-like Receptor 4 (TLR 4) agonists in this assay and induce high levels of proinflammatory cytokines such as interleukin 6 (IL-6) and tumor necrosis factor alpha (TNFα).
# [2] = test system: Escherichia coli; experiment: Lactating cow E. coli mastitis challenge model, Example 1; format: in vivo, Holstein Crossbred Cattle
# Experimental: A frozen stock of E. coli was used to prepare a suspension of approximately 500 colony forming units/10 mL using standard site procedures. Standard plate counts were conducted on the challenge suspension immediately after preparation and after all animals were challenged. Details of the challenge inoculum preparation including concentration (CFU/10 mL) for the pre- and post-challenge preparation were documented and confirmed to be in range. Locally sourced healthy adult female Holstein Crossbred Cattle in the first, second, or third lactation were enrolled into the studies. Animals challenged with E. coli were susceptible to E. coli as determined by vaccination records and low serum titer to E. coli. Animals enrolled were confirmed to be between 14 and 35 days post-calving at enrollment. […] Following challenge quarters bacteriologically positive for E. coli were regarded as infected. Clinical mastitis was defined as a challenged quarter having a clinical score of at least 1 for either milk appearance or udder evaluation and an isolation of E. coli from the challenged quarter. Subclinical mastitis was defined as isolation of E. coli from the challenged quarter and elevated SSC in the absence of abnormal milk or udder score. This isolate elicits a moderate case of E. coli mastitis with body temperature increase in the first 24 hours post challenge and consistent local signs on udder appearance and milk quality.
# In this study, animals were treated with 50 mg/10 mL at 12-hour intervals starting 12 hours prior to E. coli challenge. A total of 4 doses were administered by intramammary infusion. Dose administration concluded 24 hours after challenge. The objective of the study was to evaluate the potential for CATH2 to reduce the severity of clinical mastitis by modulation of the host immune response. The dose regimen was designed to ensure sufficient exposure in the absence of understanding the duration of the immunological effect driven by the peptide in cattle.
# The experimental design was a randomized design with a one-way treatment structure replicated in 3 batches. […] Milk samples were collected for transcriptomic analysis and cytokine profiles in the whey at 12 hours post-challenge. Differential quantitative milk leukocyte counts were collected for 7 days post challenge.
# One hundred fifty bovine milk samples were obtained in 3 separate cohorts and processed to whey. The whey samples were analyzed for total protein levels and the levels of 8 total cytokines using the developed MSD whey U-Plex method.
# [3] = test system: Escherichia coli; experiment: E. coli intramammary challenge in lactating dairy cows, CATH2 and analogs, Example 2; format: in vivo, Holstein cows
# Text: The objective of this study was to evaluate the efficacy of Cathelicidin-2 peptide analogs for reduction of incidence of clinical mastitis and severity of infection following Escherichia coli intramammary (IMM) infusion in lactating dairy cows. Healthy Holstein cows in their second or third lactation were selected based on culture negative results for mastitis pathogens and low somatic cell counts≤200,000. Enrolled animals were randomly assigned to treatment. Cows were commingled, housed and fed according to standard site procedures, and fitted with sensors to monitor activity. Cows were milked twice daily at regular intervals. The assigned treatment was administered following am and pm milkings starting 2 days prior to challenge. Four total treatments and the challenge were administered in the left front quarter. Treatment was administered twice daily for 2 days prior to challenge. The E. coli challenge material was administered to the treated quarter on the morning of Day 0 of study. The treatment regimen was designed to evaluate efficacy for prevention of the disease. All peptides were dosed at 50 mg/10 mL per dose. Milk samples were collected for analysis at 6-hour intervals on Day 0, and at each morning's milking from Day 1 through Day 7, and on Days 11 and 14.
# [4] = test system: bacteria; experiment: Modified minimal bactericidal concentration assay in varying concentrations of milk; format: cell-based; conditions: as little as 10% whole and skim milk
# Text: The CATH2 peptide has antibacterial activity where it causes membrane disruption and lysis of the bacterial cell. The peptide also has cytotoxic effects on eukaryotic cells at high concentrations due the high positive charge, +8, and its ability to integrate in the cell membrane, resulting in membrane disruption. To further understand the behavior of the peptide in the context of the mammary gland, the inventors investigated the antibacterial activity and cytotoxicity of the peptide in the presence of milk. […] This finding led the inventors to investigate the impact of milk protein binding on peptide activity.
# [5] = Transcriptomics after treatment alone in the lactating cow model; format: in vivo; conditions: 100 mg/10 mL, 12 hour post administration, lactating cows
# Text: Prior to challenge in the lactating cow model, there is a consistent treatment effect of CATH2 alone indicating a modulation of the animal immune response. In the lactating cow model, these shifts lead to an enhanced response in clearance of the E. coli and resolution of inflammation as compared to untreated controls.
sequence,measurement,setting,value
"RFGRFLRKIRRFRPKVTITIQ [CATH2, truncated 1-21 amino acid L-form of chicken cathelicidin 2 peptide]","proinflammatory cytokines (IL-6, TNFα) upon LPS or MPLA stimulation","[1]; LPS or MPLA (TLR 4 agonist) stimulation, FIG. 1",dose-dependent inhibition of proinflammatory cytokines
same,proinflammatory cytokines in healthy unstimulated bovine mammary epithelial cells,"[1]; varying concentrations of the peptide, unstimulated",minor increase in proinflammatory cytokines
same,animals showing signs of clinical mastitis,"[2]; 50 mg/10 mL intramammary, 4 doses at -12, 0, 12, 24 h, saline 95.65%",8.70%
same,animals never positive for intramammary infection,"[2]; 50 mg/10 mL intramammary, 4 doses, 20 of 23 animals",86.96% and 87.0%
same,animals that never met criteria for clinical mastitis,"[2]; 50 mg/10 mL intramammary, 4 doses, 21 out of 23 animals",91.3%
same,animals qualifying for subclinical mastitis,"[2]; 14-day study, saline 20 of 23",None
same,somatic cell count (SCC),"[2]; 6 hours post challenge, FIG. 6",notable increase in the SCC
same,"milk whey cytokines (IL-1B, IL-6, IL-8/CXCL8, IL-10, TNFα)","[2]; 12 hr post-challenge, vs saline",significantly lower levels of key inflammatory cytokines; also recorded: reduction in peak cytokine responses
same,milk yield,"[2]; AfiLab in-line system, each milking, FIG. 7",maintained high milk yields
same,BSA levels in the milk vs Saline control,"[2]; all time points after Day 0 at 6 hours post-challenge, FIG. 8",statistically significantly reduced BSA levels
same,time of SCC return to baseline,"[2]; bovine, in vivo",≤ 24 hours post challenge
same,bacterial load in the milk,"[2]; first 6 days, FIG. 4",significant inhibition of E. coli ability to establish infection
same,BSA return to baseline levels,[2]; milk from challenged quarter,≤ 3 Study Day
same,animals not showing an increase in body temperature,"[2]; rectal temperature, 22 of 23 animals",95.7%
same,overall protection against mastitis following IMM challenge with E. coli,[3]; 50 mg/10 mL,best protection against mastitis
same,intramammary infection observed,"[3]; 50 mg/10 mL, 4 treatments prior to challenge, vehicle 100%",52.94%
same,animals meeting criteria for clinical mastitis,"[3]; 50 mg/10 mL, 4 treatments twice daily for 2 days prior to challenge, vehicle 100.0%, FIG. 9",47.06%
same,cows with normal challenged quarter,"[3]; Day 6, vehicle 0%",41.48%
same,"milk concentrations of BSA, milk haptoglobin, milk amyloid A, IL-1 beta, IL-6, IL-8, IL-10 and TNFα",[3]; FIGS. 13-20,lowest
same,cows demonstrating fever,"[3]; vehicle 80.0%, FIG. 12",41.2%
same,duration of fever,[3]; vehicle 5.5 h,2.4 h
same,peak E. coli counts from the challenged quarter,[3]; vehicle >4.0,< 1.5 log10 CFU/mL
same,bacterial load post challenge,"[3]; vs vehicle control, FIG. 10",greatest reduction in the bacterial load
same,BSA level in the milk,"[3]; vs vehicle control, FIG. 13",lowest level of BSA in the milk
same,peptide antibacterial activity in the presence of milk,[4],completely inhibited
same,gene expression in milk,[5],"increased expression of: CCL24, CXCL2, IL1RAP, CXCR1, and CXCR2"
